Assay results reported in patent US9809634B2, “Composition comprising branched multipeptide vaccine and vaccine comprising the same” (INDUSTRY FOUNDATION OF CHONNAM NATIONAL UNIVERSITY, priority 2015, dated 2017).

System: T2 cell line expressing HLA-A2
Test: Binding capacity to T-lymphocyte of each subsequence residue (T2 cells, HLA-A2-FITC staining, flow cytometry)
Format: cell-based, human
Conditions: T2 cells cultured overnight with peptide and beta2-microglobulin; FIG. 3; compared with the other subsequence residues of the same tumor antigen
Procedure: The binding capacity to T-lymphocyte, of each of the subsequence residues shown in Table 1 above, was measured (FIG. 3).
Measurement of binding capacity between T-lymphocyte and each of the subsequence residues
T2 cell line (Korea Cell Line Bank) is […] expressing HLA-A2. The peptide and beta2-microglobulin on T2 cells were cultured overnight, and the T2 cells were stained with antihuman HLA-A2-FITCmAb, and analyzed by a FACS Caliber flow cytometer and WinMDI software.
The binding capacity of subsequence residue was calculated from mean fluorescence with the peptide and mean fluorescence without the peptide according to the following Equation: […]

| Sequence | binding capacity to T-lymphocyte |
| --- | --- |
| LLLFGLLGV (Peptide CD99-9) [SEQ ID NO: 10] | most excellent |
| LMLGEFLKL [SEQ ID NO: 9] | most excellent |
